Columns and labels:
HeLa cells = assay: Luciferase transfection efficiency of triple complex in HeLa cells; type: cell-based; details: for luciferase activity for various peptides: DNA:peptide:DP liposomes 1:4:4 (w/w/w), compared to Tat and Sc-Tat control peptides, FIG. 9A
Description: In order to test transfection efficiency, the TatC peptide was precomplexed with the pcDNA3-luciferase vector DNA in 50 ul OPTI-MEM medium and was incubated for 5 minutes at room temperature. The DP liposomes was prepared in a 50 ul OPTI-MEM medium and added to the preformed complex of the TatC peptide and pcDNA3-luciferase vector DNA. The ratio of each component in the triple complex of the TatC peptide/DNA/DP liposomes was adjusted to 3:1:5 respectively. The triple complex of TatC peptide/DNA/DP liposomes was incubated for 10 minutes at room temperature and used for transfection into cells. After 5 hr incubation, 300 ul/well of the OPTI-MEM medium containing 20% Fetal Bovine Serum (FBS) was added into each transfection well. Further incubation for 16 hours was carried out before measuring transfection efficiency in luciferase activity using a luciferase assay kit (Promega, USA). To check luciferase activity of the pcDNA3-luciferase vector DNA, the following procedure was adopted. Cells were washed with PBS buffer (without Mg^2+ or Ca^2+) and lysed in 100 μl/well of 1×CCLR solution (Cell culture Lysis Reagent, 25 mM Tris-phosphate [pH 7.8], 2 mM DTT, 2 mM 1,2-diaminocyclohexane-N,N,N′,N′-tetraacetic acid, 10% glycerol, 1% Triton X-100). Cell lysates was centrifuged at 12,000×g for 1 minute and 50 ul supernatant was carefully harvested without disturbing the cell pellet. The cell lysates then mixed with 20 μl Luciferase Assay reagent. Luciferase activity was tested using a luminometer (Berthold detection systems, Sirius, Germany). As a negative control, the DP liposomes alone. […]
To examine transfection efficiency in the presence or absence of serum, the TatC/DNA(pcDNA3-luc)/DP liposomes triple complex of the present invention was transfected into HeLa and K562 cells in a medium with or without 10% FBS (FIG. 13A and B). A complex of DNA and liposomes was used as a negative control.

kidney of SD rats = assay: In vivo delivery of LacZ plasmid by retrograde ureteral injection, X-gal staining of kidney sections; design: species or system rat; details: TatC:DNA:DP=4:1:4, retrograde injection, male SD rats, compared to DNA/liposome or DNA alone, FIG. 16
Description: To test the transfection efficiency of the peptide/DNA/liposomes triple complex in vivo, the following experiment was performed. Male Sprague-Dawley (SD) rats (Hamamatsu, Shizuoka, Japan) were supplied from SLC and were housed in groups of 6 with free access to standard chow and water. Male SD rats, weighing 200-250 g, were used in these experiments. After anesthesia by the intraperitoneal injection of pentobarbital (5 mg/100 g body weight), the left kidney was exposed via an abdominal midline incision. Rats were subjected to ureteral ligation proximal to the left kidney, which was followed by retrograde injection of the triple complex (TatC: DNA: DP=4:1:4) using a 24 gauge catheter syringe. Kidneys were harvested 24 hours after injection of the triple complex. and embedded in a Tissue-Tek™ OCT compound (Miles, Elkhart, Ill.) under liquid nitrogen. Tissue blocks of the perfusion-fixed kidney with 4% paraformaldehyde were cryosectioned to 10 μm thickness and mounted on Poly-Prep™ slides (Sigma, St. Louise, Mo.). After dissection of individual kidneys, kidney sections were fixed with 0.05% glutaraldehyde in PBS by perfusion for 15 min, and incubated in X-gal solution (1.5 mM potassium ferricyanide, 1.5 mM potassium ferrocyanide, and 1% X-gal) at 37° C. for 4 h. Tissue sections of 4 μm were counterstained with hematoxylin and examined using a microscope at 400 fold magnification.

WRT7/P2 cells = assay: Cellular uptake of FITC-labeled oligonucleotide; type: cell-based, rat; details: TatC peptide/DNA/LFA triple complex compared to LFA liposomes alone; FIG. 8
Description: Next, transfection efficiency of nucleic acid by the triple complex was tested for oligonucleotides labeled with FITC at both ends. Oligonucleotides were complexed with the TatC peptide and LFA liposomes and were transfected to a rat monocytic cell line, WRT7/P2. The transfected cells were then assayed for FITC-fluorescence. We observed that cellular uptake of the oligonucleotides with the TatC peptide/DNA/LFA triple complex was much higher than delivered with LFA liposomes alone (FIG. 8). […] Therefore, the TatC peptide delivery system of the present invention may be effectively utilized for efficient delivery into cells regardless of the types of DNA to be delivered.

K562 cells = assay: Luciferase transfection efficiency of triple complex in K562 cells; type: cell-based; details: TatC/DNA(pcDNA3-luc)/DP liposomes, FIG. 13B
Description: In order to test transfection efficiency, the TatC peptide was precomplexed with the pcDNA3-luciferase vector DNA in 50 ul OPTI-MEM medium and was incubated for 5 minutes at room temperature. The DP liposomes was prepared in a 50 ul OPTI-MEM medium and added to the preformed complex of the TatC peptide and pcDNA3-luciferase vector DNA. The ratio of each component in the triple complex of the TatC peptide/DNA/DP liposomes was adjusted to 3:1:5 respectively. The triple complex of TatC peptide/DNA/DP liposomes was incubated for 10 minutes at room temperature and used for transfection into cells. After 5 hr incubation, 300 ul/well of the OPTI-MEM medium containing 20% Fetal Bovine Serum (FBS) was added into each transfection well. Further incubation for 16 hours was carried out before measuring transfection efficiency in luciferase activity using a luciferase assay kit (Promega, USA). To check luciferase activity of the pcDNA3-luciferase vector DNA, the following procedure was adopted. […]
In order to test transfection efficiency of the triple complex, TatC peptide and liposomes (DP or LFA) were mixed with plasmid DNA in various ratios. […] Luciferase activity was then measured as described in Example 3.1.
The TatC peptide shown in Example 2.1 was modified with RGD amino acid sequence at both N-and C-termini. […] Luciferase activity was measured for each transfected cells as described in Example 3.1. […]

[1] = system: 293, HT-29, HL-60, MCF-7, A549, NC1-H1299, WI-38VA13, HepG2 and Hep3B cells; assay: Luciferase transfection efficiency of triple complex in 9 different cell lines; type: cell-based, human; details: various ratios
cells = assay: Luciferase transfection efficiency of TatC peptide/DNA/cationic liposome triple complex (FIG. 1, FIG. 2); type: cell-based
Description: In order to test transfection efficiency, the TatC peptide was precomplexed with the pcDNA3-luciferase vector DNA in 50 ul OPTI-MEM medium and was incubated for 5 minutes at room temperature. The DP liposomes was prepared in a 50 ul OPTI-MEM medium and added to the preformed complex of the TatC peptide and pcDNA3-luciferase vector DNA. The ratio of each component in the triple complex of the TatC peptide/DNA/DP liposomes was adjusted to 3:1:5 respectively. The triple complex of TatC peptide/DNA/DP liposomes was incubated for 10 minutes at room temperature and used for transfection into cells. After 5 hr incubation, 300 ul/well of the OPTI-MEM medium containing 20% Fetal Bovine Serum (FBS) was added into each transfection well. Further incubation for 16 hours was carried out before measuring transfection efficiency in luciferase activity using a luciferase assay kit (Promega, USA). To check luciferase activity of the pcDNA3-luciferase vector DNA, the following procedure was adopted. Cells were washed with PBS buffer (without Mg^2+ or Ca^2+) and lysed in 100 μl/well of 1×CCLR solution (Cell culture Lysis Reagent, 25 mM Tris-phosphate [pH 7.8], 2 mM DTT, 2 mM 1,2-diaminocyclohexane-N,N,N′,N′-tetraacetic acid, 10% glycerol, 1% Triton X-100). Cell lysates was centrifuged at 12,000×g for 1 minute and 50 ul supernatant was carefully harvested without disturbing the cell pellet. The cell lysates then mixed with 20 μl Luciferase Assay reagent. Luciferase activity was tested using a luminometer (Berthold detection systems, Sirius, Germany). As a negative control, the DP liposomes alone.
The TatC peptide/DNA (pcDNA3-luciferase vector)/LFA liposome complex was prepared as described in Example 3.1. Transfection was carried out according to the manufacturer's recommended protocol (Life Technologies, USA), and was tested for luciferase activity.
To deteremine if enhanced transfection efficiency could be attained, a TatC Peptide/DNA/cationic liposomes triple complex were formed by mixing them in different order. […]

Sequence: RKKRRQRRRPPQ (Tat) [Tat peptide containing the NLS motif without any modification, control, reference compound]
- luciferase activity for various peptides (HeLa cells): comparably low

Sequence: RGDRKKRRQRRRPPQCRGD (RGD-TatC-RGD)
- luciferase activity for various peptides (HeLa cells): markedly higher luciferase activity

Sequence: RKKRRQRRRPPQC (TatC)
- expression of the β-galactosidase gene in kidney (kidney of SD rats): observed only in the group treated with the complex composed of TatC/DNA/liposomes
- cellular uptake of FITC-labeled oligonucleotides (FITC-fluorescence) (WRT7/P2 cells): much higher
- luciferase activity with or without 10% FBS (K562 cells): higher in medium containing serum
- luciferase activity ([1]; triple complex TatC peptide/DNA/DP, compared to DP liposomes alone, FIG. 6): remarkably higher luciferase activity
- luciferase activity ([1]; triple complex TatC peptide/DNA/LFA, compared to liposomes alone, FIG. 7): Analogous results
- transfection efficiency according to mixing order (cells; TatC peptide and DNA mixed first, then cationic liposome (LFA), compared with other mixing orders, FIG. 2): highest
- transfection activity (luciferase) (cells; TatC peptide/DNA/LFA liposome complex compared to LFA liposomes only, FIG. 1): higher transfection activity
- luciferase activity (cells; triple complex TatC peptide/DNA/DP liposomes 3:1:5, compared to DP liposomes alone, FIG. 1): significantly enhances luciferase activity
- luciferase activity for various peptides (HeLa cells): markedly higher luciferase activity
- luciferase activity with or without 10% FBS (HeLa cells; TatC/DNA(pcDNA3-luc)/DP liposomes, HeLa, FIG. 13A): higher in medium containing serum

Sequence: RKKRRQRRRPPQCRGDRGD (TatC-RGD-RGD)
- luciferase activity for various peptides (HeLa cells): markedly higher luciferase activity

Sequence: RRKRQRKRRPQP (Scrambled Tat(Sc-Tat)) [scrambled Tat peptide with random disturbance of the NLS motif, negative control, reference compound]
- luciferase activity for various peptides (HeLa cells): comparably low

Reference: US7297759B2, “Peptides for increasing transfection efficiency” (Welgene, Inc., priority 2002, dated 2007)
